Measurements as given in patent publication US6534090B2, “Oral osmotic controlled drug delivery system for a sparingly soluble drug” (Sun Pharmaceutical Advanced Research Centre Limited, priority 2001, dated 2003).

Legend:
[1] = Comparative experiments: anhydrous carbamazepine suspended in water or aqueous solution of a crystal habit modifier; type: physicochemical
[2] = below 4 μg/ml ineffective, above 12 μg/ml side-effects likely; cited from earlier work
[3] = cited from earlier work

length of crystals formed from anhydrous carbamazepine ([1]; in water, absence of a crystal habit modifier, long discrete needles that cluster): ≤ 500 μm
Structure (SMILES): NC(=O)N1c2ccccc2C=Cc2ccccc21 [carbamazepine, 5H-dibenz-[b,f]azepine-5-carboxamide]
conversion of anhydrous carbamazepine microcrystals ([1]; in the presence of hydroxypropyl methylcellulose): did not convert to the dihydrate crystals | therapeutic range (blood levels) [2]: 4 to 12 µg/mL | solubility in water [3]: sparingly soluble in water
